# Results published in patent US7582645B2, “Pyrimidine derivatives for treatment of hyperproliferative disorders” (Bayer Pharmaceuticals Corporation, priority 2003, dated 2009).
# System: HCT116 cells
# Experiment: HCT116 cytotoxic activity assay (Alamar Blue, 72 h)
# Assay type: cell-based
# Conditions: Homo sapiens, HCT-116, 72 h compound exposure, greater than 500 nM but less than or equal to 2 μM
# Method: Representative compounds of this invention were tested for cytotoxicity using the above-described assay procedure with the following results: […]
row,SMILES,IC50
1,"N#Cc1cc(Oc2ccc(Nc3cc(-c4cc(F)cc(F)c4)nc(N)n3)cc2)ccn1 [Example 276, 4-(4-{[2-amino-6-(3,5-difluorophenyl)pyrimidin-4-yl]amino}phenoxy)pyridine-2-carbonitrile]",0.5 to 2 µM
2,"NC(=O)c1cc(Oc2ccc(Nc3cc(-c4cc(F)cc(F)c4)nc(N)n3)cc2)ccn1 [Example 279, 4-(4-{[2-amino-6-(3,5-difluorophenyl)pyrimidin-4-yl]amino}phenoxy)pyridine-2-carboxamide]",0.5 to 2 µM
3,"NC(=O)c1cc(Oc2cccc(Nc3cc(-c4cccc(OCc5ccccc5)c4)nc(N)n3)c2)ccn1 [Example 281, 4-[3-({2-amino-6-[3-(benzyloxy)phenyl]pyrimidin-4-yl}amino)phenoxy]pyridine-2-carboxamide]",0.5 to 2 µM
4,"NC(=O)c1cc(Oc2cccc(Nc3cc(-c4cccc(N)c4)nc(N)n3)c2)ccn1 [Example 283, 4-(3-{[2-amino-6-(3-aminophenyl)pyrimidin-4-yl]amino}phenoxy) pyridine-2-carboxamide]",0.5 to 2 µM
5,"COc1ccc(-c2cc(Nc3cccc(Oc4ccnc(C(N)=O)c4)c3)nc(N)n2)cn1 [Example 284, 4-(3-{[2-amino-6-(6-methoxypyridin-3-yl)pyrimidin-4-yl]amino}phenoxy) pyridine-2-carboxamide]",0.5 to 2 µM
6,"NC(=O)c1cc(Oc2cccc(Nc3cc(-c4ccccc4F)nc(N)n3)c2)ccn1 [Example 286, 4-(3-{[2-amino-6-(2-fluorophenyl)pyrimidin-4-yl]amino}phenoxy) pyridine-2-carboxamide]",0.5 to 2 µM
7,"COc1ccccc1-c1cc(Nc2cccc(Oc3ccnc(C(N)=O)c3)c2)nc(N)n1 [Example 291, 4-(3-{[2-amino-6-(2-methoxyphenyl)pyrimidin-4-yl]amino}phenoxy) pyridine-2-carboxamide]",0.5 to 2 µM
8,"N#CCc1ccc(-c2cc(Nc3cccc(Oc4ccnc(C(N)=O)c4)c3)nc(N)n2)cc1 [Example 294, 4-[3-({2-amino-6-[4-(cyanomethyl)phenyl]pyrimidin-4-yl}amino)phenoxy]pyridine-2-carboxamide]",0.5 to 2 µM
9,"NC(=O)c1cc(Oc2cccc(Nc3cc(-c4cccnc4)nc(N)n3)c2)ccn1 [Example 297, 4-{3-[(2-amino-6-pyridin-3-ylpyrimidin-4-yl)amino]phenoxy} pyridine-2-carboxamide]",0.5 to 2 µM
10,"COc1ccc(OC)c(-c2cc(Nc3cccc(Oc4ccnc(C(N)=O)c4)c3)nc(N)n2)c1 [Example 300, 4-(3-{[2-amino-6-(2,5-dimethoxyphenyl)pyrimidin-4-yl]amino}phenoxy)pyridine-2-carboxamide]",0.5 to 2 µM
11,"Cc1cc(Oc2ccc(Nc3cc(-c4ccc(Oc5ccccc5)cc4)nc(N)n3)cc2)ccn1 [Example 304, N4*-{4-[(2-methylpyridin-4-yl)oxy]phenyl}-6-(4-phenoxyphenyl) pyrimidine-2,4-diamine]",0.5 to 2 µM
12,"Cc1cc(Oc2ccc(Nc3cc(-c4cccc(O)c4)nc(N)n3)cc2)ccn1 [Example 306, 3-[2-amino-6-({4-[(2-methylpyridin-4-yl)oxy]phenyl}amino)pyrimidin-4-yl]phenol]",0.5 to 2 µM
13,"CC(=O)Nc1ccc(-c2cc(Nc3ccc(Oc4ccnc(C)c4)cc3)nc(N)n2)cc1 [Example 308, N-{4-[2-amino-6-({4-[(2-methylpyridin-4-yl)oxy]phenyl}amino)pyrimidin-4-yl]phenyl} acetamide]",0.5 to 2 µM
14,"Cc1cc(Oc2ccc(Nc3cc(-c4ccccc4OC(F)(F)F)nc(N)n3)cc2)ccn1 [Example 309, N4-{4-[(2-methylpyridin-4-yl)oxy]phenyl}-6-[2-(trifluoromethoxy)phenyl]pyrimidine-2,4-diamine]",0.5 to 2 µM

# Same assay, conditions: Homo sapiens, HCT-116, 72 h compound exposure, greater than 2 μM
row,SMILES,IC50
1,"NC(=O)c1cc(Oc2ccc(Nc3cc(-c4cccc(OC(F)(F)F)c4)nc(N)n3)cc2)ccn1 [Example 277, 4-[4-({2-amino-6-[3-(trifluoromethoxy)phenyl]pyrimidin-4-yl}amino)phenoxy]pyridine-2-carboxamide]",> 2 µM
2,"NC(=O)c1cc(Oc2cccc(Nc3cc(-c4ccc(-c5ccccc5)cc4)nc(N)n3)c2)ccn1 [Example 280, 4-{3-[(2-amino-6-biphenyl-4-ylpyrimidin-4-yl)amino]phenoxy} pyridine-2-carboxamide]",> 2 µM
3,"NC(=O)c1cc(Oc2cccc(Nc3cc(-c4cccc(F)c4)nc(N)n3)c2)ccn1 [Example 285, 4-(3-{[2-amino-6-(3-fluorophenyl)pyrimidin-4-yl]amino}phenoxy) pyridine-2-carboxamide]",> 2 µM
4,"CN(C)c1ccc(-c2cc(Nc3cccc(Oc4ccnc(C(N)=O)c4)c3)nc(N)n2)cc1 [Example 287, 4-[3-({2-amino-6-[4-(dimethylamino)phenyl]pyrimidin-4-yl}amino)phenoxy]pyridine-2-carboxamide]",> 2 µM
5,"COc1ccc(C(C)C)cc1-c1cc(Nc2cccc(Oc3ccnc(C(N)=O)c3)c2)nc(N)n1 [Example 289, 4-(3-{[2-amino-6-(5-isopropyl-2-methoxyphenyl)pyrimidin-4-yl]amino}phenoxy)pyridine-2-carboxamide]",> 2 µM
6,"CC(C)c1ccc(-c2cc(Nc3cccc(Oc4ccnc(C(N)=O)c4)c3)nc(N)n2)cc1 [Example 293, 4-(3-{[2-amino-6-(4-isopropylphenyl)pyrimidin-4-yl]amino}phenoxy) pyridine-2-carboxamide]",> 2 µM
7,"Cc1ccc(-c2cc(Nc3cccc(Oc4ccnc(C(N)=O)c4)c3)nc(N)n2)cc1 [Example 295, 4-(3-{[2-amino-6-(4-methylphenyl)pyrimidin-4-yl]amino}phenoxy) pyridine-2-carboxamide]",> 2 µM
8,"CC(C)c1cccc(-c2cc(Nc3cccc(Oc4ccnc(C(N)=O)c4)c3)nc(N)n2)c1 [Example 299, 4-(3-{[2-amino-6-(3-isopropylphenyl)pyrimidin-4-yl]amino}phenoxy) pyridine-2-carboxamide]",> 2 µM
9,"NC(=O)c1cc(Oc2cccc(Nc3cc(-c4ccc[nH]4)nc(N)n3)c2)ccn1 [Example 301, 4-(3-{[2-amino-6-(1H-pyrrol-2-yl)pyrimidin-4-yl]amino}phenoxy) pyridine-2-carboxamide]",> 2 µM
10,"NC(=O)c1cc(Oc2cccc(Nc3cc(-c4ccc(Cl)c(Cl)c4)nc(N)n3)c2)ccn1 [Example 303, 4-(3-{[2-amino-6-(3,4-dichlorophenyl)pyrimidin-4-yl]amino}phenoxy)pyridine-2-carboxamide]",> 2 µM
11,"Cc1cc(Oc2ccc(Nc3cc(-c4ccc(OC(F)(F)F)cc4)nc(N)n3)cc2)ccn1 [Example 307, N4*-{4-[(2-methylpyridin-4-yl)oxy]phenyl}-6-[4-(trifluoromethoxy)phenyl]pyrimidine-2,4-diamine]",> 2 µM

# Same assay, conditions: Homo sapiens, HCT-116, 72 h compound exposure, less than or equal to 500 nM
row,SMILES,IC50
1,"N#Cc1cc(Oc2ccc(Nc3cc(-c4ccccc4OC(F)(F)F)nc(N)n3)cc2)ccn1 [Example 275, 4-[4-({2-amino-6-[2-(trifluoromethoxy)phenyl]pyrimidin-4-yl}amino)phenoxy]pyridine-2-carbonitrile]",≤ 0.5 µM
2,"NC(=O)c1cc(Oc2ccc(Nc3cc(-c4ccccc4OC(F)(F)F)nc(N)n3)cc2)ccn1 [Example 278, 4-[4-({2-amino-6-[2-(trifluoromethoxy)phenyl]pyrimidin-4-yl}amino)phenoxy]pyridine-2-carboxamide]",≤ 0.5 µM
3,"Cc1cc(Oc2ccc(Nc3cc(-c4ccc(F)cc4)nc(N)n3)cc2)ccn1 [Example 282, 6-(4-fluorophenyl)-N4*-{4-[(2-methylpyridin-4-yl)oxy]phenyl} pyrimidine-2,4-diamine]",≤ 0.5 µM
4,"CCc1cccc(-c2cc(Nc3cccc(Oc4ccnc(C(N)=O)c4)c3)nc(N)n2)c1 [Example 288, 4-(3-{[2-amino-6-(3-ethylphenyl)pyrimidin-4-yl]amino}phenoxy) pyridine-2-carboxamide]",≤ 0.5 µM
5,"Cc1ccccc1-c1cc(Nc2cccc(Oc3ccnc(C(N)=O)c3)c2)nc(N)n1 [Example 290, 4-(3-{[2-amino-6-(2-methylphenyl)pyrimidin-4-yl]amino}phenoxy) pyridine-2-carboxamide]",≤ 0.5 µM
6,"COc1cccc(-c2cc(Nc3cccc(Oc4ccnc(C(N)=O)c4)c3)nc(N)n2)c1 [Example 292, 4-(3-{[2-amino-6-(3-methoxyphenyl)pyrimidin-4-yl]amino}phenoxy) pyridine-2-carboxamide]",≤ 0.5 µM
7,"Cc1cccc(-c2cc(Nc3cccc(Oc4ccnc(C(N)=O)c4)c3)nc(N)n2)c1 [Example 296, 4-(3-{[2-amino-6-(3-methylphenyl)pyrimidin-4-yl]amino}phenoxy) pyridine-2-carboxamide]",≤ 0.5 µM
8,"NC(=O)c1cc(Oc2cccc(Nc3cc(-c4ccsc4)nc(N)n3)c2)ccn1 [Example 298, 4-(3-{[2-amino-6-(3-thienyl)pyrimidin-4-yl]amino}phenoxy) pyridine-2-carboxamide]",≤ 0.5 µM
9,"Cc1ccc(-c2cc(Nc3cccc(Oc4ccnc(C(N)=O)c4)c3)nc(N)n2)cc1N [Example 302, 4-(3-{[2-amino-6-(3-amino-4-methylphenyl)pyrimidin-4-yl]amino}phenoxy)pyridine-2-carboxamide]",≤ 0.5 µM
10,"Cc1cc(Oc2ccc(Nc3cc(-c4cccc(N(C)C)c4)nc(N)n3)cc2)ccn1 [Example 305, 6-[3-(dimethylamino)phenyl]-N4*- {4-[(2-methylpyridin-4-yl)oxy]phenyl}pyrimidine-2,4-diamine]",≤ 0.5 µM
11,"Cc1cc(Oc2ccc(Nc3cc(-c4ccc(O)cc4)nc(N)n3)cc2)ccn1 [Example 310, 4-[2-amino-6-({4-[(2-methylpyridin-4-yl)oxy]phenyl}amino)pyrimidin-4-yl]phenol]",≤ 0.5 µM
12,"COc1ccc(-c2cc(Nc3ccc(Oc4ccnc(C)c4)cc3)nc(N)n2)cn1 [Example 312, 6-(6-methoxypyridin-3-yl)-N4*-{4-[(2-methylpyridin-4-yl)oxy]phenyl} pyrimidine-2,4-diamine]",≤ 0.5 µM
13,"Cc1cc(Oc2ccc(Nc3cc(-c4ccc(N)cc4)nc(N)n3)cc2)ccn1 [Example 313, 6-(4-aminophenyl)-N4*-{4-[(2-methylpyridin-4-yl)oxy]phenyl} pyrimidine-2,4-diamine]",≤ 0.5 µM
